Measurements: patent publication US8455649B2, “Insecticidal substituted azinyl derivatives” (Dow AgroSciences, LLC, priority 2007, dated 2013)

Columns and labels:
[1] = tested on: Corn Earworm (Helicoverpa zea); assay: Insecticidal diet-surface test for corn earworm; assay type: in vivo; settings: 120 h, second-instar larvae on treated diet, 50 μg/cm^2 on diet surface, 5 days after treatment, 8 insects per treatment, read-out: HELIZE AVG % Mortality (50 μg/cm^2)
Summary of the method: (§1)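 Second-instar larvae placed on lepidopteran diet surface-treated with 50 μL of 2000 ppm compound in 9 acetone:1 water (stated as 50 μg/cm^2), eight wells per species. Held 5 days at 25° C, 50-55% RH, 16:8 h light:dark; mortality of 8 larvae scored as percent control.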

[2] = tested on: Beet Armyworm (Spodoptera exigua); assay: Insecticidal diet-surface test for beet armyworm; assay type: in vivo; settings: 120 h, second-instar larvae on treated diet, 50 μg/cm^2 on diet surface, 5 days after treatment, 8 insects per treatment, read-out: LAPHEG AVG % Mortality (50 μg/cm^2)
Summary of the method: as §1

SMILES	mortality at 50 µg/cm2 [1]	mortality at 50 µg/cm2 [2]
CN(C(=O)Nc1nc(OCC(F)(F)F)nc(OCC(F)(F)F)n1)c1ccc(Br)cc1 [Compound 119]	88%	100%
CN(C(=O)Nc1nc(OCC(F)(F)F)cc(OCC(F)(F)F)n1)c1c(F)cccc1F [Compound 159]	0%	100%
Cc1c(OCC(F)(F)F)nc(NC(=O)N(C)c2ccc(C(F)(F)F)cc2)nc1OCC(F)(F)F [Compound 141]	100%	100%
